According to publication PMC7660103, “Discovery of Novel 3-Cyanopyridines as Survivin Modulators and Apoptosis Inducers” (Molecules, 2020):

What was measured:
[1] = molecular target: T1, survivin (Homo sapiens, UniProt O15392); test: Rescue experiment with proteasome inhibitor MG132 (Western blot of survivin); format: cell-based; conditions: MDA-MB cells pre-treated with proteasome inhibitor MG132
T1 construct: Western blotting analysis in MDA-MB-231cells treated with different concentrations of both compounds; endogenous in cells; host or cells: MDA-MB-231
Description: Degradation of the dimeric proteins can result from the interaction with the hydrophobic dimerization interface, which leads to conformational changes. This degradation can be mediated by the proteasome enzyme. Since 5c and 5e were expected to inhibit survivin dimerization as shown in the docking study, we assumed that they may induce the degradation of survivin via the proteasome. Thus, a rescue experiment was performed by pre-treating MDA-MB-cells with the proteasome inhibitor MG132 prior to 5c/5e treatment. […] Thus, 5c and 5e likely promote survivin degradation through the proteasome.

[2] = tested on: MDA-MB-231 cells; test: Cell cycle analysis by flow cytometry; format: cell-based, human; conditions: MDA-MB-231, IC50 concentration, 24 h; for %Pre-G1: control 1.87; for %G2-M: control 4.38; for %S: control 35.21; for %G0-G1: control 60.41
Excerpt: Survivin has been recognized to play dual roles in stimulating cell-cycle progression and in obstructing apoptosis. Additionally, survivin is known to be expressed mainly in the G2/M phase of the cell cycle. Therefore, it was significant to examine the ability of our promising compounds 5c and 5e to induce cell cycle arrest. […] As shown in Figure 2 and Table 3, both 5c and 5e caused an increase in the number of cells in the G2/M phase by 4.92 and 5.74 folds, respectively, compared to the control cells. At the same time, a decrease in the DNA content in the G0/G1 phase, and a slight decrease in the S phase cells were observed. […] Supplementary Material Figures S37–S39 contain the cell cycle analysis for control and compounds 5c and 5e.
After that, cells were collected by trypsin and washed in saline buffered with phosphate. Then, they were fixed using ice-cold alcohol. Afterwards, cells were stained by a Cycle TESTTM PLUS DNA Reagent Kit (BD Biosciences, San Jose, CA, USA) according to the manufacturer’s directions. The distribution of the cells in the cell cycle was calculated using a FACS Calibur flow cytometer (BD Biosciences, San Jose, CA, USA).

[3] = tested on: XIAP; test: Western blotting of XIAP in MDA-MB-231 cells; format: cell-based, human; conditions: for XIAP protein level (Western blot, in words): MDA-MB-231, 1, 5 and 10 µM
Description: The ability of the 2-oxo-3-cyano pyridines 5c and 5e to cause an inhibition of survivin was evaluated by the use of Western blotting analysis in MDA-MB-231cells treated with different concentrations of both compounds (1, 5, and 10 µM). […] Furthermore, to test the effect of these compounds on some other IAP family proteins, the Western plot of Livin, XIAP, and C-IAP1 proteins was performed (Figure 6). […] The Supplementary Material Figures S40 and S41 contain western blotting analysis for 5c and 5e.
MDA-MB-231 cancer cells were incubated with 5c and 5e at different concentrations (1, 5, and 10 µM) for 48 h. Afterwards, the medium was detached, and the cells were washed using PBS (10 mmol/L, pH 7.4). Then, the cells were incubated on cold lysis buffer (50 mmol/L Tris–HCl, 150 mmol/L NaCl, 1 mmol/L EGTA, 1 mmol/L EDTA, 20 mmol/L NaF, […], 0.5% NP40, 1% Triton X-100, 1 mmol/L PMSF (pH 7.4)) and a freshly added cocktail inhibitor (Inhibitor Cocktail Set III, Calbiochem, La Jolla, CA) above ice for 30 min. Then, MDA-MB-231 cells were collected and centrifuged at 12,000× g for 15 min.
XIAp, Survivin, Livin, and cIAP1anti-mouse, anti-rabbit secondary antibodies, and GAPDH were purchased from Sigma-Aldrich, whereas the gel was obtained from BioRad. Polyacrylamide gels were moved to a nitrocellulose membrane in order to block in buffer (7% nonfat dry milk/1% Tween 20; in 20 mmol/L TBS (pH 7.6)) for 1 h and incubated for 2 h at room temperature with the suitable primary antibody in blocking buffer or overnight at 4 °C; then, they were incubated with secondary antibody HRP conjugate. Finally, the blots analysis was done using the imaging system.

[4] = tested on: hepatocellular carcinoma (HepG2) cells; test: SRB cytotoxicity assay, HepG2; format: cell-based, human; conditions: for IC50: Homo sapiens, HepG2, 72 h, SRB assay, 72 h, mean ± SD of three experiments; for Selectivity Index HepG2: SI = IC50 on WI-38/IC50 on HepG2
Description: (§1) In the present work, sulforhodamine B (SRB) colorimetric assay was done to evaluate the cytotoxic activity of the synthesized 3-cyano pyridines 4a–4e, 5a–5e, and 6a–6e on three human cancer cell lines: prostate carcinoma (PC-3), breast cancer (MDA-MB-231) and hepatocellular carcinoma (HepG2) cell lines. 5-FU was used as a standard drug for comparison.
(§2) Human cancer cells were obtained from Nawah Scientific Inc. (Mokatam, Cairo, Egypt). Cells were maintained in DMEM media containing […] streptomycin, 100 units/mL penicillin, and 10% heat-inactivated fetal bovine serum in humified, 5% (v/v) CO2 atmosphere at 37 °C.
(§3) Cell viability was estimated using the SRB assay. Aliquots of 100 µL cell suspension (5 × 10^3 cells) in 96-well plates were incubated in complete media for 24 h. Cells were treated with a second aliquot of 100 µL media containing various concentrations of the tested compounds (0.01, 0.1, 1, 10, and 100 μM). After 72 h, cells were fixed by replacing media with 15 µL of 10% TCA and then incubated at 4 °C for 1 h. After that, TCA solution was removed, and the cells were washed 5 times with distilled water. Aliquots of 70 µL SRB solution (0.4% w/v) were added and incubated in a dark place at room temperature for 10 min. Plates were washed 3 times with 1% acetic acid and allowed to air dry overnight. Then, 150 µL of TRIS (10 mM) was added to dissolve protein-bound SRB stain. The absorbance was measured at 540 nm using BMG LABTECH®-FLUO star Omega microplate reader (Ortenberg, Germany).

[5] = tested on: breast cancer (MDA-MB-231) cells; test: SRB cytotoxicity assay, MDA-MB-231; format: cell-based, human; conditions: for IC50: Homo sapiens, MDA-MB-231, 72 h, SRB assay, 72 h, mean ± SD of three experiments; for Selectivity Index MDA-MB-231: SI = IC50 on WI-38/IC50 on MDA-MB-231
Description: as §1, §2, §3

[6] = tested on: normal cell line WI-38; test: SRB cytotoxicity assay, normal cell line WI-38; format: cell-based; conditions: Homo sapiens, WI-38, mean ± SD of three experiments
Description: The cytotoxicity of the newly synthesized compounds on the normal cell line WI-38 was also evaluated in order to examine the safety of these compounds.
as §3

[7] = cytotoxicity compared with 5-FU

T1 sequence (O15392 whole entry): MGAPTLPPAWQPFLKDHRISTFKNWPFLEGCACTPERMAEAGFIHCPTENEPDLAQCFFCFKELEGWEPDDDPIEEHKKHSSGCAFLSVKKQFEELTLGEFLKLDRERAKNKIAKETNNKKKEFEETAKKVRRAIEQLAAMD

Row | Compound | effect of MG132 pre-treatment on compound-induced survivin loss [1] | increase in the number of cells in the G2/M phase compared to control [2] | %Pre-G1 [2] | %G2-M [2] | %S [2] | %G0-G1 [2] | XIAP band % ([3]; MDA-MB-231, 1µM) | XIAP band Area ([3]; MDA-MB-231, 1µM) | XIAP band Height ([3]; MDA-MB-231, 1µM) | XIAP band Width ([3]; MDA-MB-231, 1µM) | XIAP band % ([3]; MDA-MB-231, 5µM) | XIAP band Area ([3]; MDA-MB-231, 5µM) | XIAP band Height ([3]; MDA-MB-231, 5µM) | XIAP band Width ([3]; MDA-MB-231, 5µM) | XIAP band % ([3]; MDA-MB-231, 10µM) | XIAP band Area ([3]; MDA-MB-231, 10µM) | XIAP band Height ([3]; MDA-MB-231, 10µM) | XIAP band Width ([3]; MDA-MB-231, 10µM) | XIAP protein level (Western blot, in words) [3] | IC50 [4] | further results
1 | N#Cc1c(-c2ccc(Cl)cc2)cc(-c2ccc(OCc3ccc(F)cc3)cc2)[nH]c1=O [Compound 5c, 4-(4-Chlorophenyl)-6-(4-((4-fluorobenzyl)oxy)phenyl)-2-oxo-1,2-dihydropyridine-3-carbonitrile] | MG132 reversed 5c/5e-induced survivin loss | 4.92 fold | 16.32% | 21.57% | 33.16% | 45.27% | 16.3% | 970 | 99 | 22 | 15.1% | 921 | 88 | 19 | 14.2% | 853 | 82 | 19 | decreased the levels of these proteins | 15 ± 0.64 µM | Selectivity Index HepG2 [4]: 6.08; IC50 [5]: 20 ± 0.17 µM; Selectivity Index MDA-MB-231 [5]: 4.56; IC50 [6]: 91.29 ± 0.47 µM
2 | COc1ccc(-c2cc(-c3ccc(OCc4ccc(F)cc4)cc3)[nH]c(=O)c2C#N)cc1 [Compound 5e, 6-(4-((4-Fluorobenzyl)oxy)phenyl)-4-(4-methoxyphenyl)-2-oxo-1,2-dihydropyridine-3-carbonitrile] | MG132 reversed 5c/5e-induced survivin loss | 5.74 fold | 19.47% | 25.16% | 32.48% | 42.36% | 15.4% | 841 | 80 | 22 | 8.6% | 287 | 41 | 17 | 4.7% | 260 | 28 | 13 | decreased the levels of these proteins | 6.01 ± 0.53 µM | Selectivity Index HepG2 [4]: 17.06; activity relative to 5-FU, HepG2 [4, 7]: comparable to 5-FU; IC50 [5]: 3.59 ± 0.42 µM; Selectivity Index MDA-MB-231 [5]: 28.57; activity relative to 5-FU, MDA-MB-231 [5, 7]: 2.6 fold; IC50 [6]: 102.6 ± 0.81 µM
